# Data published in patent publication US20100298141A1, “SUBSTITUTED PYRIDINE N-OXIDE HERBICIDES” (E. I. DU PONT DE NEMOURS AND COMPANY, priority 2007, published 2010).
# Legend:
# [1] = tested on: yellow nutsedge; assay: Test C pre-/postemergence test; assay type: in vivo, Cyperus esculentus; conditions: Preemergence
# Summary of the method: (§1)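 Compounds in a non-phytotoxic solvent with surfactant applied preemergence to seeded pots and, at the same time, postemergence to plants 2–18 cm tall (1- to 4-leaf stage). Paddy tests: pots flooded to 3 cm, compound applied into the water, depth held throughout.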
# [2] = tested on: common ragweed; assay: Test C pre-/postemergence test; assay type: in vivo, Ambrosia elation; conditions: Preemergence
# Summary of the method: as §1
# [3] = tested on: kochia; assay: Test C pre-/postemergence test; assay type: in vivo, Kochia scoparia; conditions: Preemergence
# Summary of the method: as §1
# [4] = tested on: crabgrass; assay: Test A pre-/postemergence greenhouse test; assay type: in vivo, Digitaria sanguinalis; conditions: for Crabgrass, Large plant response rating: 0 to 100 scale
# Summary of the method: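 Visual injury ratings, made relative to untreated controls roughly ten days after treatment, cover both preemergence and postemergence application. Compounds in a surfactant-containing non-phytotoxic solvent were sprayed onto the soil surface after sowing and, simultaneously, onto young plants at the one- to two-leaf stage.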
# [5] = tested on: naked crabgrass; assay: Test F preemergence test; assay type: in vivo, Digitaria nuda; conditions: scale 0 to 100
# Summary of the method: (§2)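 Visual ratings relative to controls, taken after 14 to 21 days in a greenhouse. Test chemicals, formulated in a surfactant-containing non-phytotoxic solvent mixture, were applied preemergence to sown seeds or postemergence to sugarcane plants.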
# [6] = tested on: green foxtail; assay: Test F preemergence test; assay type: in vivo, Setaria viridis; conditions: scale 0 to 100
# Summary of the method: as §2
# [7] = tested on: broadleaf signalgrass; assay: Test F preemergence test; assay type: in vivo, Brachiaria platyphylla; conditions: scale 0 to 100
# Summary of the method: as §2
# [8] = tested on: itchgrass; assay: Test F preemergence test; assay type: in vivo, Rottboellia cochinchinensis; conditions: scale 0 to 100
# Summary of the method: as §2
# [9] = tested on: prickly sida; assay: Test F preemergence test; assay type: in vivo, Sida spinosa; conditions: scale 0 to 100
# Summary of the method: as §2
# [10] = tested on: bermudagrass; assay: Test F preemergence test; assay type: in vivo, Cynodon dactylon; conditions: scale 0 to 100
# Summary of the method: as §2
# [11] = tested on: pitted morningglory; assay: Test F preemergence test; assay type: in vivo, Ipomoea lacunosa; conditions: scale 0 to 100
# Summary of the method: as §2
# [12] = tested on: common ragweed; assay: Test F preemergence test; assay type: in vivo, Ambrosia elation; conditions: scale 0 to 100
# Summary of the method: as §2
# [13] = tested on: goosegrass; assay: Test F preemergence test; assay type: in vivo, Eleusine indica; conditions: scale 0 to 100
# Summary of the method: as §2
# [14] = tested on: purple nutsedge; assay: Test F preemergence test; assay type: in vivo, Cyperus rotundus; conditions: scale 0 to 100
# Summary of the method: as §2
# [15] = 31 g ai/ha, scale 0 to 100 (0 no effect, 100 complete control)
smiles,measurement,setting,value
Cn1nc(C(F)(F)F)c(C[S+]([O-])c2cccc[n+]2[O-])c1OCC(F)(F)F (racemic) [Compound 28],"Nutsedge, Yellow plant response rating","[1]; 62 g ai/ha, scale 0 to 100",80
same,"Plant response rating, Nutsedge, Yellow",[1]; [15],80
same,Ragweed plant response rating,"[2]; 62 g ai/ha, scale 0 to 100",85
same,"Plant response rating, Ragweed",[2]; [15],65
same,Kochia plant response rating,"[3]; 62 g ai/ha, scale 0 to 100",100
same,"Plant response rating, Kochia",[3]; [15],100
same,"Crabgrass, Large plant response rating","[4]; Postemergence, 125 g ai/ha, 0 is no effect, 100 is complete control",80
same,"Crabgrass, Large plant response rating","[4]; Postemergence, 500 g ai/ha, 0 is no effect, 100 is complete control",90
same,"Crabgrass, Large plant response rating","[4]; Preemergence, 125 g ai/ha, 0 no effect, 100 complete control",100
same,"Plant response rating, Crabgrass, Large","[4]; Preemergence, 500 g ai/ha, 0 to 100 scale where 0 is no effect and 100 is complete control",100
same,"Crabgrass, Naked plant response rating","[5]; 62 g ai/ha, Preemergence",90
same,"Crabgrass, Naked plant response rating","[5]; 125 g ai/ha, preemergence",100
same,"Plant response rating, Crabgrass, Naked","[5]; Preemergence, 16 g ai/ha",65
same,"Plant response rating, Crabgrass, Naked","[5]; Preemergence, 31 g ai/ha",90
same,"Foxtail, Green plant response rating","[6]; 62 g ai/ha, Preemergence",100
same,"Foxtail, Green plant response rating","[6]; 125 g ai/ha, preemergence",100
same,"Plant response rating, Foxtail, Green","[6]; Preemergence, 16 g ai/ha",30
same,"Plant response rating, Foxtail, Green","[6]; Preemergence, 31 g ai/ha",80
same,Signalgrass plant response rating,"[7]; 62 g ai/ha, Preemergence",90
same,Signalgrass plant response rating,"[7]; 125 g ai/ha, preemergence",100
same,"Plant response rating, Signalgrass","[7]; Preemergence, 31 g ai/ha",75
same,Itchgrass plant response rating,"[8]; 62 g ai/ha, Preemergence",95
same,Itchgrass plant response rating,"[8]; 125 g ai/ha, preemergence",100
same,"Plant response rating, Itchgrass","[8]; Preemergence, 16 g ai/ha",20
same,"Plant response rating, Itchgrass","[8]; Preemergence, 31 g ai/ha",35
same,Prickly Sida plant response rating,"[9]; 62 g ai/ha, Preemergence",100
same,Prickly Sida plant response rating,"[9]; 125 g ai/ha, preemergence",100
same,"Plant response rating, Prickly Sida","[9]; Preemergence, 16 g ai/ha",15
same,"Plant response rating, Prickly Sida","[9]; Preemergence, 31 g ai/ha",90
same,Bermudagrass plant response rating,"[10]; 62 g ai/ha, Preemergence",80
same,Bermudagrass plant response rating,"[10]; 125 g ai/ha, preemergence",100
same,"Plant response rating, Bermudagrass","[10]; Preemergence, 16 g ai/ha",0
same,"Plant response rating, Bermudagrass","[10]; Preemergence, 31 g ai/ha",30
same,Morningglory plant response rating,"[11]; 62 g ai/ha, Preemergence",100
same,Morningglory plant response rating,"[11]; 125 g ai/ha, preemergence",100
same,"Plant response rating, Morningglory","[11]; Preemergence, 16 g ai/ha",30
same,"Plant response rating, Morningglory","[11]; Preemergence, 31 g ai/ha",80
same,Ragweed plant response rating,"[12]; 62 g ai/ha, Preemergence",80
same,Ragweed plant response rating,"[12]; 125 g ai/ha, preemergence",90
same,"Plant response rating, Ragweed","[12]; Preemergence, 16 g ai/ha",20
same,"Plant response rating, Ragweed","[12]; Preemergence, 31 g ai/ha",70
same,Goosegrass plant response rating,"[13]; 62 g ai/ha, Preemergence",100
same,Goosegrass plant response rating,"[13]; 125 g ai/ha, preemergence",100
same,"Plant response rating, Goosegrass","[13]; Preemergence, 16 g ai/ha",65
same,"Plant response rating, Goosegrass","[13]; Preemergence, 31 g ai/ha",98
same,Purple Nutsedge plant response rating,"[14]; 62 g ai/ha, Preemergence",80
same,Purple Nutsedge plant response rating,"[14]; 125 g ai/ha, preemergence",90
same,"Plant response rating, Purple Nutsedge","[14]; Preemergence, 16 g ai/ha",0
same,"Plant response rating, Purple Nutsedge","[14]; Preemergence, 31 g ai/ha",25
